Target: T1, human calcium-sensing receptor (CaSR) (Homo sapiens, UniProt P41180)
T1 construct: expressed in transfected cells
T1 sequence (P41180 20-1078): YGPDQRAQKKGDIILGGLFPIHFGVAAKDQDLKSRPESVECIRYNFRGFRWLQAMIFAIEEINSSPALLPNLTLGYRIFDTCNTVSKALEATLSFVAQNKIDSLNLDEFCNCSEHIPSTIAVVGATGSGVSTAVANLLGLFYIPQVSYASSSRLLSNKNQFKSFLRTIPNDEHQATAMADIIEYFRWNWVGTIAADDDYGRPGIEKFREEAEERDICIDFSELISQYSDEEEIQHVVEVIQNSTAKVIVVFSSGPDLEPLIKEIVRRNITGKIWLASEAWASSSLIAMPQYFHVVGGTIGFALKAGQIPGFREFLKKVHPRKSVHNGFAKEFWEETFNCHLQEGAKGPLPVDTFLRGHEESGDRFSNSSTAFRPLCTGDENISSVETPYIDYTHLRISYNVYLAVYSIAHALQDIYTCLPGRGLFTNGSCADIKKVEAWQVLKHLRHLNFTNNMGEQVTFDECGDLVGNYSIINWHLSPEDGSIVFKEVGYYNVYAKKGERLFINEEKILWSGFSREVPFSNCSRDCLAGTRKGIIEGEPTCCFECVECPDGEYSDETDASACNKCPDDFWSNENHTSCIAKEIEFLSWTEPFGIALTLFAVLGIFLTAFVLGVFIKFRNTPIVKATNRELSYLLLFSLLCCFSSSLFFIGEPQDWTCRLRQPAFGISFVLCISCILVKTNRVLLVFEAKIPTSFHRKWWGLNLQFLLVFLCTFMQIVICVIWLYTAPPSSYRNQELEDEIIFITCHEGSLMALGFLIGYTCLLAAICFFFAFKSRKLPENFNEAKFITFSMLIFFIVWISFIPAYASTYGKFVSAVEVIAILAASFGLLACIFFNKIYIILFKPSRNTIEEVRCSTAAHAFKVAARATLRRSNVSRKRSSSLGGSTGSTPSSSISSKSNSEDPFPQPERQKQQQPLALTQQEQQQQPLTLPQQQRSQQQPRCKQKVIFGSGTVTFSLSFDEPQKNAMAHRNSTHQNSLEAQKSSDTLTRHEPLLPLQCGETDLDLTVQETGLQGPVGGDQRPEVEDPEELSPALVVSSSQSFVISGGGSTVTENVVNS
Test: Inhibitory activity on calcium-sensing receptor (CaSR), intracellular calcium increase as indicator (FLIPR, CHO/hCaSR)
Format: cell-based
Conditions: CHO cells stably expressing human CaSR; inhibition of intracellular Ca increase induced by extracellular CaCl2
Description: Evaluation of inhibitory activity on calcium-sensing receptor (CaSR) using intracellular calcium increase as an indicator
The preparation which is prepared by adding CHO/hCaSR to F12 medium (manufactured by Invitrogen) containing 10% fetal bovine serum to have 2×10^5 cells/mL was applied to a 384-well in an amount of 50 μL/well, and then incubated overnight in a CO2 incubator. The culture supernatant was completely removed, the assay buffer (20 mM HEPES, HBSS (Ca and Mg free) containing 2.5 mM probenecid, pH 7.4) containing Calcium 3 (manufactured by Molecular Devices), i.e., a fluorescent intracellular calcium indicator, was added thereto in an amount of 25 μL/well, and the mixture was maintained for 1 hour in a CO2 incubator. Meanwhile, Calcium 3 was prepared according to the protocol enclosed in FLIPR Calcium 3 Assay Kit (manufactured by Molecular Devices). After maintaining it for 1 hour, a solution in which the test compound is prepared to have 2.1 to 20,000 nM (final concentration of 1.05 to 10,000 nM) by an assay buffer was added thereto in an amount of 25 μL/well, and maintained for 15 minutes in a CO2 incubator. Then, the CaCl2 solution prepared to have […] by using the assay buffer was added in an amount of 25 μL/well, and the resulting intracellular Ca increase (i.e., fluorescence intensity) was measured over time using a fluorescence imaging plate reader (FLIPR, manufactured by Molecular Devices). From the data obtained, the difference between the fluorescence intensity before the addition of CaCl2 solution and the maximum fluorescence intensity after the addition of CaCl2 solution was calculated, and the 50% inhibition concentration (IC50) of the test compound was obtained.

| SMILES | IC50 [µM] |
| --- | --- |
| Cc1ccc(C[C@@H]2CCCN2C[C@@H](O)CO[C@H](C)c2ccccc2/C=C/C(=O)O)cc1F [Example 1, (2E)-3-{2-[(1R)-1-({(2R)-3-[(2S)-2-(3-Fluoro-4-methylbenzyl)pyrrolidin-1-yl]-2-hydroxypropyl}oxy)ethyl]phenyl}prop-2-enoic acid] | ≤ 3.62 |
| Cc1ccc(C[C@@H]2CCCN2C[C@@H](O)CO[C@H](C)c2ccccc2CCC(=O)O)cc1F [Example 2, 3-{2-[(1R)-1-({(2R)-3-[(2S)-2-(3-Fluoro-4-methylbenzyl)pyrrolidin-1-yl]-2-hydroxypropyl}oxy)ethyl]phenyl}propanoic acid] | ≤ 3.61 |
| Cc1ccc(C[C@@H]2CCCN2C[C@@H](O)CO[C@H](C)c2cccc(C)c2CCC(=O)O)cc1F [Example 3, 3-{2-[(1R)-1-({(2R)-3-[(2S)-2-(3-Fluoro-4-methylbenzyl)pyrrolidin-1-yl]-2-hydroxypropyl}oxy)ethyl]-6-methylphenyl}propanoic acid] | ≤ 3.5 |
| Cc1ccc([C@@H](C)OC[C@H](O)CN2CCC[C@H]2Cc2ccc(C)c(F)c2)c(CCC(=O)O)c1 [Example 4, 3-{2-[(1R)-1-({(2R)-3-[(2S)-2-(3-Fluoro-4-methylbenzyl)pyrrolidin-1-yl]-2-hydroxypropyl}oxy)ethyl]-5-methylphenyl}propanoic acid] | ≤ 3.5 |
| Cc1ccc(C[C@@H]2CCCN2C[C@@H](O)CO[C@H](C)c2cccc(F)c2CCC(=O)O)cc1F [Example 6, 3-{2-Fluoro-6-[(1R)-1-({(2R)-3-[(2S)-2-(3-fluoro-4-methylbenzyl)pyrrolidin-1-yl]-2-hydroxypropyl}oxy)ethyl]phenyl}propanoic acid] | ≤ 3.47 |
| Cc1ccc(C[C@@H]2CCCN2C[C@@H](O)CO[C@H](C)c2cc(F)ccc2CCC(=O)O)cc1F [Example 8, 3-{4-Fluoro-2-[(1R)-1-({(2R)-3-[(2S)-2-(3-fluoro-4-methylbenzyl)pyrrolidin-1-yl]-2-hydroxypropyl}oxy)ethyl]phenyl}propanoic acid] | ≤ 3.47 |
| Cc1ccc(C[C@@H]2CCCN2C[C@@H](O)CO[C@H](C)c2ccccc2CCCCC(=O)O)cc1F [Example 13, 5-{2-[(1R)-1-({(2R)-3-[(2S)-2-(3-Fluoro-4-methylbenzyl)pyrrolidin-1-yl]-2-hydroxypropyl}oxy)ethyl]phenyl}pentanoic acid] | ≤ 3.39 |
| Cc1ccc(C[C@@H]2CCN2C[C@@H](O)CO[C@H](C)c2ccccc2CCCCC(=O)O)cc1F [Example 15, 5-{2-[(1R)-1-({(2R)-3-[(2R)-2-(3-Fluoro-4-methylbenzyl)azetidin-1-yl]-2-hydroxypropyl}oxy)ethyl]phenyl}pentanoic acid] | ≤ 3.5 |
| COc1cccc([C@@H](C)OC[C@H](O)CN2CCC[C@H]2Cc2ccc(C)c(F)c2)c1CCC(=O)O [Example 18] | ≤ 3.38 |
| CC[C@@H](OC[C@H](O)CN1CCC[C@H]1Cc1ccc(C)c(F)c1)c1ccccc1CCC(=O)O [Example 19] | ≤ 3.5 |
| Cc1ccc(C[C@@H]2CCCN2C[C@@H](O)CO[C@H](C)c2ccc(F)c(C)c2CCC(=O)O)cc1F [Example 20] | ≤ 3.36 |
| CCC[C@@H](OC[C@H](O)CN1CCC[C@H]1Cc1ccc(C)c(F)c1)c1ccccc1CCC(=O)O [Example 21] | ≤ 3.39 |
| Cc1ccc(C[C@@H]2CCCN2C[C@@H](O)CO[C@H](C)c2cc(F)c(C)cc2CCC(=O)O)cc1F [Example 22] | ≤ 3.36 |
| Cc1ccc(C[C@@H]2CCCN2C[C@@H](O)CO[C@H](C)c2cc(F)c(C)cc2CCCCC(=O)O)cc1F [Example 23] | ≤ 3.18 |
| Cc1ccc(C[C@@H]2CCCN2C[C@@H](O)CO[C@H](C)c2cc(F)c(F)cc2CCC(=O)O)cc1F [Example 26] | ≤ 3.34 |
| Cc1ccc(C[C@@H]2CCCN2C[C@@H](O)CO[C@H](C)c2cc(F)cc(F)c2CCC(=O)O)cc1F [Example 27] | ≤ 3.34 |
| Cc1ccc(C[C@@H]2CCCN2C[C@@H](O)CO[C@@H](c2ccccc2CCC(=O)O)C2CC2)cc1F [Example 29] | ≤ 3.41 |
| Cc1ccc(C[C@@H]2CCCN2C[C@@H](O)CO[C@H](C)c2cc(F)c(F)cc2CCCCC(=O)O)cc1F [Example 30] | ≤ 3.15 |
| Cc1ccc(C[C@@H]2CCCN2C[C@@H](O)COC(C)c2c(F)cccc2CCC(=O)O)cc1F (some centres unmarked) [Example 31] | ≤ 3.47 |

Results, then the molecule that gave them:

| IC50 [µM] | SMILES |
| --- | --- |
| ≤ 3.5 | Cc1ccc(C[C@@H]2CCCN2C[C@@H](O)COC(C)c2c(C)cccc2CCC(=O)O)cc1F (some centres unmarked) [Example 32] |
| ≤ 3.25 | COc1cc(F)cc([C@@H](C)OC[C@H](O)CN2CCC[C@H]2Cc2ccc(C)c(F)c2)c1CCC(=O)O [Example 33] |
| ≤ 3.34 | Cc1ccc(C[C@@H]2CCCN2C[C@@H](O)COC(C)c2c(CCC(=O)O)ccc(F)c2F)cc1F (some centres unmarked) [Example 34] |
| ≤ 3.58 | C[C@@H](OC[C@H](O)CN1CCC[C@H]1Cc1ccc(F)c(F)c1)c1ccccc1CCC(=O)O [Example 38] |
| ≤ 3.64 | CCc1cccc(C[C@@H]2CCCN2C[C@@H](O)CO[C@H](C)c2ccccc2CCC(=O)O)c1 [Example 39] |
| ≤ 3.19 | COc1cccc([C@@H](C)OC[C@H](O)CN2CCC[C@H]2Cc2ccc(C)c(F)c2)c1CCCCC(=O)O [Example 42] |
| ≤ 3.36 | CC[C@@H](OC[C@H](O)CN1CCC[C@H]1Cc1ccc(C)c(F)c1)c1cc(F)ccc1CCC(=O)O [Example 43] |
| ≤ 3.36 | CC[C@@H](OC[C@H](O)CN1CCC[C@H]1Cc1ccc(C)c(F)c1)c1cccc(F)c1CCC(=O)O [Example 44] |
| ≤ 3.39 | CC[C@@H](OC[C@H](O)CN1CCC[C@H]1Cc1ccc(C)c(F)c1)c1ccc(C)cc1CCC(=O)O [Example 45] |
| ≤ 3.28 | CC[C@@H](OC[C@H](O)CN1CCC[C@H]1Cc1ccc(C)c(F)c1)c1cccc(OC)c1CCC(=O)O [Example 46] |
| ≤ 3.39 | CC[C@@H](OC[C@H](O)CN1CCC[C@H]1Cc1ccc(C)c(F)c1)c1cccc(C)c1CCC(=O)O [Example 47] |
| ≤ 3.47 | Cc1ccc(C[C@@H]2C[C@@H](F)CN2C[C@@H](O)CO[C@H](C)c2ccccc2CCC(=O)O)cc1F [Example 48] |
| ≤ 3.48 | Cc1ccc(C[C@@H]2C[C@@H](O)CN2C[C@@H](O)CO[C@H](C)c2ccccc2CCC(=O)O)cc1F [Example 49] |
| ≤ 3.29 | Cc1ccc([C@@H](C)OC[C@H](O)CN2CCC[C@H]2Cc2ccc(C)c(F)c2)c(CCCCC(=O)O)c1 [Example 53] |
| ≤ 3.27 | Cc1ccc(C[C@@H]2CCCN2C[C@@H](O)CO[C@H](C)c2ccc(F)cc2CCCCC(=O)O)cc1F [Example 54] |
| ≤ 3.27 | Cc1ccc(C[C@@H]2CCCN2C[C@@H](O)CO[C@H](C)c2cc(F)ccc2CCCCC(=O)O)cc1F [Example 55] |
| ≤ 3.29 | Cc1ccc(C[C@@H]2CCCN2C[C@@H](O)CO[C@H](C)c2cccc(C)c2CCCCC(=O)O)cc1F [Example 57] |
| ≤ 3.27 | Cc1ccc(C[C@@H]2CCCN2C[C@@H](O)CO[C@H](C)c2cccc(F)c2CCCCC(=O)O)cc1F [Example 58] |
| ≤ 2.97 | Cc1ccc(C[C@@H]2CCCN2C[C@@H](O)CO[C@H](C)c2cc(C(F)(F)F)ccc2CCCCC(=O)O)cc1F [Example 60] |
| ≤ 3.27 | CCC[C@@H](OC[C@H](O)CN1CCC[C@H]1Cc1ccc(C)c(F)c1)c1cc(F)ccc1CCC(=O)O [Example 61] |
| ≤ 3.29 | CCC[C@@H](OC[C@H](O)CN1CCC[C@H]1Cc1ccc(C)c(F)c1)c1cccc(C)c1CCC(=O)O [Example 62] |
| ≤ 3.27 | CCC[C@@H](OC[C@H](O)CN1CCC[C@H]1Cc1ccc(C)c(F)c1)c1cccc(F)c1CCC(=O)O [Example 63] |

From patent US8173631B2, “Cyclic amine compounds” (Daiichi Sankyo Company, Limited, priority 2008, dated 2012)
